# Reference: patent US11279735B2, “Cyclic peptide antibiotics” (priority 2017, dated 2022)
# *1 amine or outer side, *2 acyl side, *3 side chain or, on linkers, in order; H or OH if unused. Where a SMILES comes first, the peptide text is derived from it. [ ]: non-standard residue; d: D form. The star is where a group is joined. X13 = C[C@H](CO[C@H](CC1CC2(CCC2)C1)[C@@H](C)C(=O)[*:2])N[*:1]; X2 = CCCCCC[C@@H](OC[C@@H](C)N[*:1])[C@@H](C)C(=O)[*:2]; Cyclobutyl(trans-3-NH2) = N[C@H]1C[C@H](*)C1; Gly(cHept) = N[C@H](C(=O)O)C1CCCCCC1; NMeL = CN[C@@H](CC(C)C)C(=O)O; Chg = N[C@H](C(=O)O)C1CCCCC1; NMeNva = CCC[C@H](NC)C(=O)O; Dap = NC[C@H](N)C(=O)O; X20 = C1NCC1C*; X7 = NCC(O)C*
# System: Escherichia coli (E. coli) strain CFT073 ATCC 700928
# Assay type: cell-based
# Conditions: ATCC 700928, 22 h
# Outline: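 Broth microdilution MIC per CLSI M07-A8 in cation-adjusted Mueller Hinton II broth with 0.002% Tween-80. Ten-point 2-fold series topped at 64, 4, 0.5 or 0.13 μg/mL depending on protocol. Final inoculum OD600 0.0005, incubated 22 h at 35 °C.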
row,SMILES,MIC [µM]
1,"CCCCCC[C@H]1OC[C@@H](C)NC(=O)[C@H](CNCCO)NC(=O)[C@H](CN)NC(=O)[C@H](C2CCCCCC2)NC(=O)[C@H](CC(C)C)N(C)C(=O)[C@@H]1C [Example 169, (3R,6S,9S,12S,15S,18R,19R)-9-(Aminomethyl)-12-cycloheptyl-19-hexyl-6-(((2-hydroxyethyl)amino)methyl)-15-isobutyl-3,16,18-trimethyl-1-oxa-4,7,10,13,16-pentaazacyclononadecane-5,8,11,14,17-pentaone]",6.3
2,"CCC[C@H]1C(=O)N[C@@H](C2CCCCCC2)C(=O)N[C@@H](CN)C(=O)N[C@@H](COCC2CNC2)C(=O)N[C@H](C)CO[C@H](CC2CC3(CCC3)C2)[C@@H](C)C(=O)N1C [Example 171, (3R,6S,9S,12S,15S,18R,19R)-9-(Aminomethyl)-6-((azetidin-3-ylmethoxy)methyl)-12-cycloheptyl-3,16,18-trimethyl-15-propyl-19-(spiro[3.3]heptan-2-ylmethyl)-1-oxa-4,7,10,13,16-pentaazacyclononadecane-5,8,11,14,17-pentaone] (cyclo([Dap]S(X20)[X13][NMeNva][Gly(cHept)]))",6.3
3,"CCC[C@H]1C(=O)N[C@@H](C2CCCCC2)C(=O)N[C@@H](CN)C(=O)N[C@@H](CO[C@H]2C[C@H](N)C2)C(=O)N[C@H](C)CO[C@H](CC2CC3(CCC3)C2)[C@@H](C)C(=O)N1C [Example 172, (3R,6S,9S,12S,15S,18R,19R)-6-(((1r,3S)-3-Aminocyclobutoxy)methyl)-9-(aminomethyl)-12-cyclohexyl-3,16,18-trimethyl-15-propyl-19-(spiro[3.3]heptan-2-ylmethyl)-1-oxa-4,7,10,13,16-pentaazacyclononadecane-5,8,11,14,17-pentaone] (cyclo([Chg][Dap]S(Cyclobutyl(trans-3-NH2))[X13][NMeNva]))",4.4
4,"CCCCCC[C@H]1OC[C@@H](C)NC(=O)[C@H](COCC(O)CN)NC(=O)[C@H](CN)NC(=O)[C@H](C2CCCCC2)NC(=O)[C@H](CC(C)C)N(C)C(=O)[C@@H]1C (stereo partly drawn) [Example 173, (3R,6S,9S,12S,15S,18R,19R)-6-((3-Amino-2-hydroxypropoxy)methyl)-9-(aminomethyl)-12-cyclohexyl-19-hexyl-15-isobutyl-3,16,18-trimethyl-1-oxa-4,7,10,13,16-pentaazacyclononadecane-5,8,11,14,17-pentaone] (cyclo([Chg][Dap]S(X7)[X2][NMeL]))",12
5,"CCCCCC[C@H]1OC[C@@H](C)NC(=O)[C@H](COc2ccc(CCN)cc2)NC(=O)[C@H](CN)NC(=O)[C@H](C2CCCCC2)NC(=O)[C@H](CC(C)C)N(C)C(=O)[C@@H]1C [Example 174, (3R,6S,9S,12S,15S,18R,19R)-6-((4-(2-Aminoethyl)phenoxy)methyl)-9-(aminomethyl)-12-cyclohexyl-19-hexyl-15-isobutyl-3,16,18-trimethyl-1-oxa-4,7,10,13,16-pentaazacyclononadecane-5,8,11,14,17-pentaone]",1.6
